The text below walks through data of patent US9801851B2, “Methods and compositions for the treatment of BCR-ABL positive lymphoblastic leukemias” (ST. JUDE CHILDREN'S RESEARCH HOSPITAL, priority 2012, dated 2017).

Data set [1] has as its system human Ph+ ALL SUPB15 cells. Description: Cell viability, MTS assay, 72 h. It counts as cell-based. As for the experimental part: Drug delivery to cell suspensions was accomplished with a V & P Scientific (San Diego, Calif.) pin. For murine-human comparisons, human SUP-B15 Ph+ ALL cells (DSMZ cell culture collection, Germany) in McCoy's media containing 20% fetal calf serum and penicillin/streptomycin (Invitrogen, Carlsbad, Calif.), were plated at 12,500 cells in 25 μL per well in black clear-bottom 384-well microtiter plates. Drugs were transferred by pin-transfer. After 72 h incubation at 37° C., 20% (by volume) MTS assay reagent (CellTiter 96 Aqueous One Solution, Promega, Madison, Wis.) was added, microtiter plates were incubated for 75 min at 37° C., and read colorimetrically at 490 nm.
(In general: Tetrazolium dyes change colour on reduction, which living cells bring about.)

For data set [2], the system named is Arf−/− BCR-ABL^WT LICs. It is filed as in vivo.
The nature of data set [3]: In vivo toxicity studies of DHA by oral gavage. Conditions: repeated single doses of 300 mg/kg, 5 days/week. As for the experimental part: In toxicity studies, DHA was ranged up to 300 mg/kg as a single or split dose for 5 days/week over a six week time period. […] During therapeutic studies, animal weights were monitored daily to ensure no significant body weight reductions.

Data set [4] relates to Arf−/− BCR-ABL^WT LICs. Description: LIC growth inhibition, CellTiter-Glo (CTG) assay, 72 h. Conditions: for effect of cytokine on dasatinib potency: 72-h dasatinib exposure in presence of increasing concentrations of cytokine. It counts as cell-based, murine.
Description: Replication-defective mouse stem cell virus (MSCV) retroviral vectors co-expressing either the wild-type (WT) allele of human p185^BCR-ABL or mutant BCR-ABL alleles p185^T315I or p185^F317L, and either green fluorescent protein (GFP) or luciferase, were packaged into replication-incompetent ecotropic virions. Whole bone marrow cell suspensions from Arf^−/− young adult mice were infected to produce Arf^−/− p185+ pre-B cells. […] Prior to use in any assays, Arf^−/− p185^WT and Arf^−/− p185^T315I pre-B cells (BCR-ABL^WT leukemia initiating cells (LICs) and BCR-ABL^T315I LICs, respectively) were thawed and allowed to recover in BCM10 for 3 days.
The maximum dimethyl sulfoxide (DMSO) concentration tolerated by LICs in culture was determined to be 0.2% (by volume) and was maintained at ≦0.1% (by volume) in all subsequent work. […] Both cell types were plated at multiple cell dilutions (n=3 for each condition, time=0 h) in 6-well plates and serially followed daily for 5 days to evaluate absolute viable cell count, total viability, doubling times, and total population doublings, using the Beckman Coulter cell counter (trypan blue staining) and fluorescence-activated cell sorting (FACS) analysis in parallel. […] FACS cell-cycle analysis confirmed that a population doubling time less than 14 h was sufficient to maintain cells in exponential growth (>50% cells in S-phase).
After a 72 h drug challenge, LIC growth was measured by the 3 cellular readouts: CellTiter-Glo® (CTG) assay (ATP content), MTS (3-(4,5-dimethylthiazol-2-yl)-5-(3-carboxymethoxyphenyl)-2-(4-sulfophenyl)-2H-tetrazolium) assay (viability), and high-throughput flow cytometry (total viability and viable cell counts by DAPI exclusion). Measured assay readouts at various drug concentrations (x-axis) were normalized to DMSO-treated LICs and graphed (+/−sd) on y-axis.

Like-named read-outs stand apart in the source and are kept apart here.

Take `C[C@@H]1CCC2[C@@H](C)[C@@H](O)O[C@@H]3OC4(C)CC[C@@H]1[C@@]23OO4` (some centres unmarked) [DHA, dihydroartemisinin]: the “killing of human Ph+ ALL cell line” value in data set [1] is “actively kill”. Also, the “efficacy alone in high-burden leukemia model” value is “completely ineffective” in data set [2] (200 mg/kg) and “poorly effective” in data set [2] (300 mg/kg). The “survival benefit, monotherapy” value in data set [2] (IL7+/+ host mice, low-burden 2×10^3 LICs, 100, 200, 300 mg/kg once daily 5 days/week from day 3) is reported as “dose-dependent survival benefit”. Also, in data set [3], the toxicity findings entry was “no significant weight loss, lethargy, seizures or deaths”. In the case of TGF-β, in data set [4], the “effect of cytokine on dasatinib potency” value is “enhance dasatinib activity”. The same measure, in the same setting: to “IL4: recombinant murine hematopoietic cytokine” belongs “confer some resistance”. On the same count and under the same terms, as for “TSLP: thymic stromal lymphopoietin, IL7-like cytokine”, the entry is “confer some resistance”. Turning to `C[C@@H]1CC[C@H]2[C@@H](C)C(=O)O[C@@H]3O[C@@]4(C)CC[C@@H]1[C@]32OO4` [artemisinin], the anti-LIC potency result in data set [4] (BCR-ABL^WT and BCR-ABL^T315I LICs, 72 h, absence or presence of 1 ng/mL murine IL7) is “lower than that of artesunate or DHA”. On to `C[C@H]1[C@H](OC(=O)CCC(=O)O)O[C@@H]2O[C@@]3(C)CC[C@H]4[C@H](C)CC[C@@H]1[C@@]24OO3` [artesunate], for which the “killing of human Ph+ ALL cell line” value in data set [1] is “actively kill”.

B1: IL7: recombinant murine cytokine, leukemia-microenvironment host factor (protein, UniProt P10168 26-154, looked up)
Interleukin-7: ECHIKDKEGKAYESVLMISIDELDKMTGTDSNCPNNEPNFFRKHVCDDTKEAAFLNRAARKLKQFLKMNISEEFNVHLLTVSQGTQTLVNCTSKEEKNVKEQKKNDACFLKRLLREIKTCWNKILKGSI
Consider B1, for which the “effect of cytokine on dasatinib potency” value in data set [4] is recorded as “strongest protection against dasatinib”.
